The text below walks through data of patent US8703790B2, “Bis [O-(14-benzoylaconine-8-yl)] esters” (priority 2008, dated 2014).

Broadly, the IC50 is the midpoint of a concentration-inhibition curve.

In one experiment the test system is HCT-15. The note with it: HCT-15, NCI data base values; cited from earlier work.
A further experiment concerns A549. The settings on record: A549, NCI data base values; cited from earlier work.
Another experiment has as its system MCF-7. The note with it: MCF-7, NCI data base values; cited from earlier work.
A further experiment deals with MCF-7 (breast cancer). The experiment is described as follows: In vitro cytotoxicity test (MTT) against human tumour cell line MCF-7. The note with it: MCF-7, 24 h contact, 48 h re-growth. It counts as cell-based. The method, then: (§1) Human tumour cell lines A549 (lung cancer), HCT-15 (colon cancer) and MCF-7 (breast cancer) have been obtained from the Developmental Therapeutics Program of the National Cancer Institute (Rockville, Md., USA). Cells were routinely grown with RPMI 1640 medium supplemented with 10% foetal calf serum, both obtained from Biochrom AG (Berlin, Germany). They were grown on Petri dishes (Nunc, Denmark) at 37° C. in a humidified atmosphere containing 5% CO2. Cells were replicated every 4 days and the medium changed once in-between.
(§2) Cytotoxicity has been evaluated on exponentially growing cells grown for 24 h in presence of the compounds to be tested. Briefly, 4000 cells were seeded in 96-well plates with 200 μL of complete medium; 24 hours later the medium was supplemented with a series of different concentrations of compounds and the contact maintained for 24 h. Compounds were dissolved in pure water and sterilised using polycarbonate membrane filters of 0.22 μm (Millipore, Molsheim, France). The cells were then allowed to re-grow for 48 hours; viable and metabolically active cells were quantitatively estimated by coloration with the MTT dye (1-(4,5-dimethylthyazol-2-yl)-3,5-diphenylformazan), Sigma-Aldrich Chimie, Saint-Quentin-Fallavier, France). The amount of substance allowing a 50% decrease in cell numbers is indicative of the cytotoxicity and represents the IC50 of compound.

Another experiment concerns HCT-15 (colon cancer). Briefly: In vitro cytotoxicity test (MTT) against human tumour cell line HCT-15. It counts as cell-based. The note with it: HCT-15, 24 h contact, 48 h re-growth. Here is the method:
as §1, §2

The test system of another experiment is A549 (lung cancer). The experiment is described as follows: In vitro cytotoxicity test (MTT) against human tumour cell line A549. It counts as cell-based. The settings on record: A549, 24 h contact, 48 h re-growth. Here is the method: as §1, §2
A further experiment deals with mouse tumours. The note with it: mouse tumours in vivo; cited from earlier work.
The test system of experiment [1] is mitochondrial oxidoreductases. The note with it: tumour cells; Picardo et al. 1985; cited from earlier work.
The conditions of experiment [2]: background statement; cited from earlier work.
Experiment [3] deals with HTC-15 (colon cancer), A549 (lung cancer), MCF-7 (breast cancer). The settings on record: HTC-15, A549, MCF-7; publication A. Chodoeva et al.; read-out: IC50 in these three cell lines; cited from earlier work.

For the molecule `N[C@@H](Cc1ccc(N(CCCl)CCCl)cc1)C(=O)O` [mephalan], the IC50 was 39.4 µM in the experiment on HCT-15, 28.7 µM in the experiment on A549 and 11.1 µM with MCF-7.

As to `CCN1C[C@]2(COC)[C@H](O)C[C@H](OC)[C@]34C1[C@H]([C@H](OC)[C@H]23)[C@]1(OC(=O)CCCCCC(=O)O[C@]23[C@H]5[C@@H](OC(=O)c6ccccc6)[C@](O)(C[C@H]5[C@@]56C7[C@@H]2[C@H](OC)[C@@H]5[C@](COC)(CN7CC)[C@H](O)C[C@@H]6OC)[C@@H](OC)[C@@H]3O)[C@H]2[C@@H](OC(=O)c3ccccc3)[C@](O)(C[C@H]24)[C@@H](OC)[C@@H]1O` [PDD, bis[O-(14-benzoylaconine-8-yl)]-pimelate], the results for the 50% inhibitory concentration (IC50) in the experiment with MCF-7 (breast cancer), in the experiment with HCT-15 (colon cancer) and in the experiment with A549 (lung cancer) were 7.5 µM, 3.76 µM and 3.76 µM, respectively.

`O=C(O)CCCCCCCC(=O)O` [Azelaic acid, azelaic acid]: the antitumour activity entry in the experiment with mouse tumours is “total absence of antitumour activity”. Besides, the “inhibition of mitochondrial oxidoreductases” value in experiment [1] was “inhibitor of mitochondrial oxidoreductases”.

Consider `O=c1[nH]cc(F)c(=O)[nH]1` [5-FU, fluorouracil], for which the IC50 with HCT-15 is 5.69 µM; in the experiment with A549 it was 2.11 µM; with MCF-7, 1.75 µM.

Regarding `N.N.[Cl][Pt][Cl]` [cisplatin], the IC50 in the experiment on HCT-15 is 7.21 µM; in the experiment on A549 it was 3.08 µM; in the experiment with MCF-7 it was 3.01 µM.

As to `COc1cc([C@@H]2c3cc4c(cc3[C@@H](O[C@@H]3O[C@@H]5CO[C@@H](C)O[C@H]5[C@H](O)[C@H]3O)[C@H]3COC(=O)[C@H]23)OCO4)cc(OC)c1O` [etoposide], the 50% inhibitory concentration (IC50) is 17.6 µM in the experiment on HCT-15, 3.61 µM in the experiment on A549 and 5.73 µM with MCF-7.

With `CCN1C[C@]2(COC)[C@H](O)C[C@H](OC)[C@]34C1[C@H]([C@H](OC)[C@H]23)[C@]1(OC(=O)CCCCCCCC(=O)O[C@]23[C@H]5[C@@H](OC(=O)c6ccccc6)[C@](O)(C[C@H]5[C@@]56C7[C@@H]2[C@H](OC)[C@@H]5[C@](COC)(CN7CC)[C@H](O)C[C@@H]6OC)[C@@H](OC)[C@@H]3O)[C@H]2[C@@H](OC(=O)c3ccccc3)[C@](O)(C[C@H]24)[C@@H](OC)[C@@H]1O` [ADD, bis[O-(14-benzoylaconine-8-yl)]-azelate], the figures for the IC50 with MCF-7 (breast cancer), in the experiment with HCT-15 (colon cancer) and in the experiment with A549 (lung cancer) were 15.5 µM, 22 µM and 19.1 µM, respectively.

With `CCN1C[C@]2(COC)[C@H](O)C[C@H](OC)[C@]34C1[C@H]([C@H](OC)[C@H]23)[C@]1(O)[C@H]2[C@@H](O)[C@](O)(C[C@H]24)[C@@H](OC)[C@@H]1O` [Aconine], the antiproliferative activity entry in [2] was “devoid of antiproliferative activity”.

As for `CCN1CC2(COC)C(O)CC(OC)C34C5CC6(O)C(OC)C(O)C(OC(=O)CCCCCCCC(=O)O)(C5C6OC(=O)c5ccccc5)C(C(OC)C23)C14` (stereo not shown) [8-O-azeloyl-14-benzoylaconine, reference compound], the IC50 was 10 to 18 µM in experiment [3], 10.3 µM in the experiment on MCF-7 (breast cancer), 19.4 µM in the experiment with HCT-15 (colon cancer) and 16.8 µM in the experiment on A549 (lung cancer).
